Results taken from patent US20250177566A1, “USE OF CHEMICAL EPIGENETIC MODIFIERS TO MODULATE GENE EXPRESSION” (The University of North Carolina at Chapel Hill, priority 2022, published 2025).

What was measured:
Type in all cases: cell-based, human
[1] = tested on: MYOD1; assay: MYOD1 mRNA activation in HEK293T (dCas9, MS2-FKBP*x2), qRT-PCR; settings: FIG. 7E; for fold change, MYOD1 mRNA (MYOD1 gRNA vs NT gRNA): 24 hrs
Description: HCT116 cells were stably infected with dCas9 and MS2-FKBP*x2 via lentivirus. NT gRNA was transfected and the change of CXCR4 mRNA expression were quantified with RNA extraction and qRT-PCR, normalized to GAPDH. After 24 hrs of SLF*-CEMa exposure, the cells were separated into three groups: 1) continuous SLF*-CEMa treatment; 2) washout with media; and 3) washout with 20 μM AP1867 added. RNA extraction was performed at 12, 24, 48, and 72 hrs time points. […] HCT116 cells were stably expressing dCas9 and MS2-FKBP*x2 constructs and transfected with CXCR4 gRNA or NT gRNA. APC CXCR4 antibody was used in flow cytometry at referred time points. […] HEK293T cells were lentivirally infected with dCas9 and MS2-FKBP*x2 constructs and transfected with MYOD1 gRNA or NT gRNA. RNA extraction and qRT-PCR were performed after 24 hrs of CEM207 treatment in 5 nM, 25 nM, and 50 nM concentrations along with no chemical treatment as the control group. MYOD1 mRNA expression level was normalized to GAPDH. […] Stable dCas9 and MS2-FKBP*x2 expressing HEK293T cells were transfected with CXCR4 gRNA and NT gRNA. RNA extraction and qRT-PCR were performed after 24 hrs of 25 nM CEM207 or no chemical treatment. CXCR4 mRNA expression level was normalized to GAPDH. […] Stable dCas9 and MS2-FKBP*x2 expressing HEK293T cells were transfected with IL1RN gRNA and NT gRNA. RNA extraction and qRT-PCR were performed after 24 hrs of 25 nM CEM207 treatment. IL1RN mRNA expression level was normalized to GAPDH. […] Stable dCas9 and MS2-FKBP*x2 expressing HEK293T cells were transfected with ASLC1 gRNA and NT gRNA. RNA extraction and qRT-PCR were performed after 24 hrs of 25 nM CEM207 treatment. IL1RN mRNA expression level was normalized to GAPDH. […] Error bars represent the standard deviation.
As a gene-specific activation technology, it is important to investigate the universal applicability of SLF*-CEMa and evaluate their ability to activate variable genes in different tissue cells. To do so, HEK293T cells stably expressing dCas9 and MS2-FKBP*x2 constructs via lentiviral infection were established and benchmarked for the gene activation level of MYOD1, CXCR4, and IL1RN after CEM207 treatment for 24 hours. HEK293T cells transfected with MYOD1 gRNA were treated with 5 nM, 25 nM, or 50 nM of CEM207. RNA extraction and qRT-PCR were preformed after 24 hours. […] As a result, another gene was tested in the […] cell line. Stably infected cells were transfected with ASCL1 gRNA and mRNA expression was measured by qRT-PCR.
RNA extraction and qRT-PCR. All RNA extraction experiments were conducted in 12-well plate format. Culturing medium was removed, and cells were washed with 1×PBS, following with 0.05% trypsin to disassociate. […] The primer sets used in quantifying each gene can be found in Table 4.

[2] = tested on: HCT116 cells; assay: alamarBlue cell viability assay, HCT116
Description: FIGS. 8A-8B show alamarBlue cell viability assays. HEK293T or HCT116 cells were plated in 96-well plates 24 hrs before chemical treatment of 0.001, 0.01, 0.1, 1, 10, 50, and 100 μM CEM207 was added. Another group of cells were treated with all concentrations of CEM207 mentioned above along with 200 nM CEM87 in all samples. After 4 days of chemical exposure, cell growth was measured by fluorescence. […] HCT116 cells were stably infected with dCas9 and MS2-FKBP*x2 constructs and transfected with CXCR4 gRNA. After 24 hrs of 25 nM CEM207 treatment, ChIP-qPCR was performed at different base pair distances from the transcription start site of CXCR4 gene. […] Error bars represent the standard deviation.
AlamarBlue cell viability assay. HEK293T or HCT116 cells were placed in black 96-well plates with clear bottom. 24 hrs later, media was exchanged to include 0.001, 0.01, 0.1, 1, 10, 50, 100 μM concentrations of CEM207, or all CEM207 concentrations above along with 200 nM CEM87. After 4 days of chemical exposure, alamarBlue Cell Viability Reagent (Invitrogen, DAL1025) was added to each well. Cells were incubated at 37° C. for 4 hrs and fluorescence was read using the TECAN Infinite F200 Fluorescence Microplate Reader. IC50 values were calculated using GraphPad Prism 9.

[3] = tested on: firefly luciferase expression cassette; assay: Transfection evaluating multiple promoters, SLF* CEM system, dual luciferase assay, 293T Renilla; settings: FIGS. 15A and 15B; ybTATA, miniCMV, Het, Ef1a core, hPGK; 0, 5, 15 or 50 nM CEM207
Description: Next, it was determined whether SLF*CEMs can regulate AAV. The cassette shown in FIG. 14A was inserted into rAAV2 and infected into HEK293T Renilla. […] Next, it was explored whether the cassette was truly modular by varying the promoter while retaining SLF* CEM successful activation of rAAV2.
Transfection Evaluating Multiple Promoters—SLF* CEM System with 0, 5, 15 or 50 nM CEM207:
Day 1 (0 h): 293T cells with stably infected Renilla under the control of full length Ef1a promoter were plated in a 96 well plate; 10 k cells/well, 100 μL media/well. All conditions were plated in biological triplicate.
Day 2 (24 h): A PEI transfection mixture of each construct (Jet, ybTATA, miniCMV, Ef1a core, and hPGK) was prepared and added to each well: 0.1 μg of DNA, 0.3 μL of PEI, and 4 μL of Opti-MEM per well, with PEI added last. Reagents were mixed well and incubated for 15 minutes. 4 μL of the appropriate transfection mixture was added to each well. […]
Day 5 (96 h): […] Data was obtained using the Promega Dula Luciferase Reporter (DLR) assay: first, the cells were washed with 100 μL of PBS/well dropwise followed by 20 μL of 1× passive lysis buffer (PLB) added to each well. The cells were incubated for 15 minutes in PLB and the assay ran on pheraSTAR microplate reader with 25 μL of each DLR reagent, gain=2000.

## CC[C@H](C(=O)N1CCCC[C@H]1C(=O)O[C@H](CCc1ccc(OC)c(OC)c1)c1cccc(OCC(=O)NCCOCCOCCNC(=O)C[C@@H]2N=C(c3ccc(Cl)cc3)c3c(sc(C)c3C)-n3c(C)nnc32)c1)c1cc(OC)c(OC)c(OC)c1 [CEM207, (R)-1-(3-((14-((S)-4-(4-Chlorophenyl)-2,3,9-trimethyl-6H-thieno[3,2-f][1,2,4]triazolo[4,3-a][1,4]diazepin-6-yl)-2,13-dioxo-6,9-dioxa-3,12-diazatetradecyl)oxy)phenyl)-3-(3,4-dimethoxyphenyl) propyl(S)-1-((S)-2-(3,4,5-trimethoxyphenyl)butanoyl) piperidine-2-carboxylate]
[1]; 5 nM, 25 nM, or 50 nM, 24 hours
  MYOD1 mRNA expression: dose-dependent increase
[1]; 5 nM
  fold change, MYOD1 mRNA (MYOD1 gRNA vs NT gRNA): 5.4 fold
[1]; 25 nM
  fold change, MYOD1 mRNA (MYOD1 gRNA vs NT gRNA): 10.8 fold
[1]; 50 nM
  fold change, MYOD1 mRNA (MYOD1 gRNA vs NT gRNA): 10.9 fold
[2]; CEM207 alone, 4 days of exposure
  IC50: 870 nM
[2]; CEM207 in the background of 200 nM CEM87, 4 days of exposure
  IC50: 359 nM
[3]
  activation with varied minimal promoters: tolerates a variety of minimal promoters
